What was measured:
[1] = molecular target: Histamine H1 receptor (Rattus norvegicus) (UniProt P31390); test: Ability to displace [3H]pyrilamine from histamine H1 receptor in male Sprague-Dawley rat brain membranes at 1 ug/mL; assay type: tissue-based; details: Membrane
Histamine H3 receptor = Histamine H3 receptor (Cavia porcellus, UniProt Q9JI35); test: Binding affinity against H3 receptor in guinea pig brain using [3H]N-alpha-methyl histamine as radioligand
Histamine H1 receptor = Histamine H1 receptor (Rattus norvegicus, UniProt P31390); test: Ability to displace [3H]pyrilamine from histamine H1 receptor in male Sprague-Dawley rat brain membranes; assay type: tissue-based, Membrane
Histamine H1 receptor, sequence (P31390 whole entry): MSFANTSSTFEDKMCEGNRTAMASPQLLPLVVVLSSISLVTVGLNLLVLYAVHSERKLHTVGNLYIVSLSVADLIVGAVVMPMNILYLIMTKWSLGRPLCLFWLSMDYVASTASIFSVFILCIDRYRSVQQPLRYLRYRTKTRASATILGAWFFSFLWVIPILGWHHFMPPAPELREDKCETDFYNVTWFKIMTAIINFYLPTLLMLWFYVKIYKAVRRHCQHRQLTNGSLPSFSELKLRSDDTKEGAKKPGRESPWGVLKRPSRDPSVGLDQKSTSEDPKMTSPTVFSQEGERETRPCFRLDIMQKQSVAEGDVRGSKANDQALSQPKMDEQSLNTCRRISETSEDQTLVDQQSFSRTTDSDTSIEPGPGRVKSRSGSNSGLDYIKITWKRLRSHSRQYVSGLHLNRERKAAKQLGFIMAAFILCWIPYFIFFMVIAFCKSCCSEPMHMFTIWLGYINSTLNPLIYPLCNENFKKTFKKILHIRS

Histamine H3 receptor, sequence (Q9JI35 whole entry): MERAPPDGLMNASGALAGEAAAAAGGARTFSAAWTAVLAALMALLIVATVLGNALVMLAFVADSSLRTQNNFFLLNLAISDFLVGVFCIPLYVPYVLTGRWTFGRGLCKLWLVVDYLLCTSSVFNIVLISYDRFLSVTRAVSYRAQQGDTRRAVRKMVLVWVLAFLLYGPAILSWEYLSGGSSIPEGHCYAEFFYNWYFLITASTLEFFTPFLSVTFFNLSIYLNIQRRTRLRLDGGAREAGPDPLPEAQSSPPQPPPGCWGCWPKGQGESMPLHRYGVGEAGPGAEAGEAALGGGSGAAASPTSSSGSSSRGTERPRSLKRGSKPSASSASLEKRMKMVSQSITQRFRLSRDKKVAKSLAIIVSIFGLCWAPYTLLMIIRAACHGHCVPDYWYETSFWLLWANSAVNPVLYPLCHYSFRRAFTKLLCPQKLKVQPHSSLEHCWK
Histamine H1 receptor (Rattus norvegicus), sequence (P31390 whole entry): as the sequence (P31390 whole entry) above

Row | Compound | inhibition [1] | Ki (Histamine H3 receptor) | Ki (Histamine H1 receptor)
1 | O=C(NCCCCc1cnc[nH]1)NCCC(c1ccc(Cl)cc1)c1ccccn1 (stereo not given) | – | 0.023 µM | 0.92 µM
2 | c1ccc(C(CCNCCCCc2c[nH]cn2)c2ccccn2)nc1 | < 50% | 0.004 µM | –
3 | O=C(CC(c1ccccn1)c1ccccn1)NCCCCc1c[nH]cn1 | < 50% | 0.001 µM | –
4 | O=C(CC(c1ccc(Cl)cc1)c1ccccn1)NCCCCc1c[nH]cn1 (stereo not given) | < 50% | 0.001 µM | –
5 | Clc1ccc(C(CCNCCCCCc2cnc[nH]2)c2ccccn2)cc1 (stereo not given) | – | 0.033 µM | 0.039 µM
6 | N=C(CC(c1ccc(Cl)cc1)c1ccccn1)NCCc1c[nH]cn1 (stereo not given) | < 50% | – | –

Continued, values first:

Row | inhibition [1] | Ki (Histamine H3 receptor) | Ki (Histamine H1 receptor) | Compound
7 | < 50% | – | – | O=C(CC(c1ccc(Cl)cc1)c1ccccn1)NCCc1c[nH]cn1 (stereo not given)
8 | < 50% | – | – | CN(CCC(c1ccc(Cl)cc1)c1ccccn1)C(=O)CCc1c[nH]cn1 (stereo not given)
9 | – | 0.05 µM | 0.006 µM | CN(CCCCCc1c[nH]cn1)CCC(c1ccc(Cl)cc1)c1ccccn1 (stereo not given)
10 | < 50% | – | – | O=C(CCc1c[nH]cn1)NCCC(c1ccc(Cl)cc1)c1ccccn1 (stereo not given)
11 | < 50% | – | – | CN(CCc1c[nH]cn1)C(=O)CC(c1ccc(Cl)cc1)c1ccccn1 (stereo not given)
12 | < 50% | 0.007 µM | – | CN(CCCCc1c[nH]cn1)C(=O)CC(c1ccc(Cl)cc1)c1ccccn1 (stereo not given)
13 | < 50% | – | – | Clc1ccc(C(CCNCCCc2c[nH]cn2)c2ccccn2)cc1 (stereo not given)
